# Assay results reported in ChEMBL document CHEMBL3046025, “Fungitoxic Properties of N-Phenylformamidoximes in Control of Benzimidazole-Resistant Isolates of Fungi” (1992).
# The source made the active and inactive calls. No cut-off for these calls is given here.
# Tests used:
# Botrytis cinerea [1] = assay: Antifungal activity against Benzimidalzole-resistant Botryotinia fuckeliana isolate Bc-44 infected kidney bean leaves at 200 ppm treated as foliar application followed by incubation for 7 days in green house condition; type: functional
# Cercospora beticola [2] = assay: Antifungal activity against Benzimidalzole-resistant Cercospora beticola isolate Cb-19 infected in sugar beet seedlings at 3.1 ppm treated as foliar application 7 days prior to inoculation; type: functional
# Cercospora beticola [3] = assay: Antifungal activity against Benzimidalzole-resistant Cercospora beticola isolate Cb-19 infected in sugar beet seedlings at 12.5 ppm treated as foliar application 7 days prior to inoculation; type: functional
# Cercospora beticola [4] = assay: Antifungal activity against Benzimidalzole-resistant Cercospora beticola isolate Cb-19 infected in sugar beet seedlings at 50 ppm treated as foliar application 7 days prior to inoculation; type: functional
# Cercospora beticola [5] = assay: Antifungal activity against Benzimidalzole-resistant Cercospora beticola isolate Cb-19 infected in sugar beet seedlings at 200 ppm treated as foliar application 7 days prior to inoculation; type: functional
# Botrytis cinerea [6] = assay: Antifungal activity against Benzimidalzole-resistant Botryotinia fuckeliana isolate Bc-44 infected kidney bean leaves at 50 ppm applied as soil drench 3 days prior to inoculation; type: functional
# Botrytis cinerea [7] = assay: Antifungal activity against Benzimidalzole-resistant Botryotinia fuckeliana isolate Bc-44 infected kidney bean leaves at 3.1 ppm treated as foliar application followed by incubation for 7 days in green house condition; type: functional
# Botrytis cinerea [8] = assay: Ratio of EC50 for Benzimidalzole-resistant Botryotinia fuckeliana isolate Bc-40 to EC50 for Benzimidalzole-resistant Botryotinia fuckeliana isolate Bc-44; type: functional
# Botrytis cinerea [9] = assay: Ratio of EC50 for Benzimidalzole-resistant Botryotinia fuckeliana isolate Bc-40 to EC50 for Benzimidalzole-resistant Botryotinia fuckeliana isolate Bc-31; type: functional
# Botrytis cinerea [10] = assay: Ratio of EC50 for Benzimidalzole-resistant Botryotinia fuckeliana isolate Bc-20 to EC50 for Benzimidalzole-resistant Botryotinia fuckeliana isolate Bc-44; type: functional
# Botrytis cinerea [11] = assay: Antifungal activity against Benzimidalzole-resistant Botryotinia fuckeliana isolate Bc-44 infected compound-treated kidney bean leaves at 50 ppm after 4 days; type: functional
# Botrytis cinerea [12] = assay: Antifungal activity against Benzimidalzole-resistant Botryotinia fuckeliana isolate Bc-44 infected compound-treated kidney bean leaves at 200 ppm after 4 days; type: functional
# Botrytis cinerea [13] = assay: Antifungal activity against Benzimidalzole-resistant Botryotinia fuckeliana isolate Bc-31 at 0.001 to 1000 ppm after 3 days by agar dilution method; type: functional, organism-based
# Botrytis cinerea [14] = assay: Antifungal activity against Benzimidalzole-resistant Botryotinia fuckeliana isolate Bc-20 at 0.001 to 1000 ppm after 3 days by agar dilution method; type: functional, organism-based
# Botrytis cinerea [15] = assay: Antifungal activity against Benzimidalzole-resistant Botryotinia fuckeliana isolate Bc-40 at 0.001 to 1000 ppm after 3 days by agar dilution method; type: functional, organism-based
# Cercospora beticola [16] = assay: Ratio of EC50 for […] to EC50 for Benzimidalzole-resistant Cercospora beticola isolate 49-4; type: functional
# Cercospora beticola [17] = assay: Ratio of EC50 for Benzimidalzole-resistant Cercospora beticola isolate 20-2 to EC50 for Benzimidalzole-resistant Cercospora beticola isolate 18-2; type: functional
# Cercospora beticola [18] = assay: Ratio of EC50 for […] to EC50 for Benzimidalzole-resistant Cercospora beticola isole 28-8; type: functional
# Cercospora beticola [19] = assay: Ratio of EC50 for Benzimidalzole-resistant Cercospora beticola isolate 20-2 to EC50 for Benzimidalzole-resistant Cercospora beticola isolate 1-3; type: functional
# Cercospora beticola [20] = assay: Ratio of EC50 for Benzimidalzole-resistant Cercospora beticola isolate 18-11 to EC50 for Benzimidalzole-resistant Cercospora beticola isolate 1-3; type: functional
# Cercospora beticola [21] = assay: Ratio of EC50 for Benzimidalzole-resistant Cercospora beticola isolate 18-11 to EC50 for Benzimidalzole-resistant Cercospora beticola isole 28-8; type: functional
# Cercospora beticola [22] = assay: Ratio of EC50 for Benzimidalzole-resistant Cercospora beticola isolate 18-11 to EC50 for Benzimidalzole-resistant Cercospora beticola isole Cb-19; type: functional
# Cercospora beticola [23] = assay: Ratio of EC50 for Benzimidalzole-resistant Cercospora beticola isolate 6-13 to EC50 for Benzimidalzole-resistant Cercospora beticola isolate 18-2; type: functional
# Cercospora beticola [24] = assay: Ratio of EC50 for Benzimidalzole-resistant Cercospora beticola isolate 6-13 to EC50 for Benzimidalzole-resistant Cercospora beticola isolate 1-3; type: functional
# Cercospora beticola [25] = assay: Ratio of EC50 for Benzimidalzole-resistant Cercospora beticola isolate 6-13 to EC50 for Benzimidalzole-resistant Cercospora beticola isole Cb-19; type: functional
# Cercospora beticola [26] = assay: Antifungal activity against Benzimidalzole-resistant Cercospora beticola isolate 20-2 at 0.001 to 1000 ppm after 14 days by agar dilution method; type: functional, organism-based
# Cercospora beticola [27] = assay: Antifungal activity against Benzimidalzole-resistant Cercospora beticola isolate 18-11 at 0.001 to 1000 ppm after 14 days by agar dilution method; type: functional, organism-based
# Cercospora beticola [28] = assay: Antifungal activity against Benzimidalzole-sensitive Cercospora beticola isolate 24-3 at 0.001 to 1000 ppm after 14 days by agar dilution method; type: functional, organism-based
# Cercospora beticola [29] = assay: Antifungal activity against Benzimidalzole-resistant Cercospora beticola isolate 28-8 at 0.001 to 1000 ppm after 14 days by agar dilution method; type: functional, organism-based
# Cercospora beticola [30] = assay: Ratio of EC50 for Benzimidalzole-sensitive Cercospora beticola isolate 24-3 to EC50 for Benzimidalzole-resistant Cercospora beticola isolate 1-3; type: functional
# Cercospora beticola [31] = assay: Ratio of EC50 for Benzimidalzole-sensitive Cercospora beticola isolate 24-3 to EC50 for Benzimidalzole-resistant Cercospora beticola isole 28-8; type: functional
# Cercospora beticola [32] = assay: Ratio of EC50 for Benzimidalzole-sensitive Cercospora beticola isolate 24-3 to EC50 for Benzimidalzole-resistant Cercospora beticola isole Cb-19; type: functional
# Cercospora beticola [33] = assay: Ratio of EC50 for Benzimidalzole-sensitive Cercospora beticola isolate 22-5 to EC50 for Benzimidalzole-resistant Cercospora beticola isolate 18-2; type: functional
# Cercospora beticola [34] = assay: Ratio of EC50 for Benzimidalzole-sensitive Cercospora beticola isolate 18-1 to EC50 for Benzimidalzole-resistant Cercospora beticola isolate 49-4; type: functional
# Cercospora beticola [35] = assay: Ratio of EC50 for Benzimidalzole-sensitive Cercospora beticola isolate 18-1 to EC50 for Benzimidalzole-resistant Cercospora beticola isolate 18-2; type: functional
# Cercospora beticola [36] = assay: Ratio of EC50 for Benzimidalzole-sensitive Cercospora beticola isolate 18-1 to EC50 for Benzimidalzole-resistant Cercospora beticola isolate 1-3; type: functional
# Cercospora beticola [37] = assay: Ratio of EC50 for Benzimidalzole-sensitive Cercospora beticola isolate 18-1 to EC50 for Benzimidalzole-resistant Cercospora beticola isole Cb-19; type: functional
# Botrytis cinerea [38] = assay: Antifungal activity against Benzimidalzole-resistant Botryotinia fuckeliana isolate Bc-44 infected kidney bean leaves at 50 ppm 24 hr post-infection measured after 3 days; type: functional
# Botrytis cinerea [39] = assay: Antifungal activity against Benzimidalzole-resistant Botryotinia fuckeliana isolate Bc-44 infected kidney bean leaves at 200 ppm 24 hr post-infection measured after 3 days; type: functional
# Cercospora beticola [40] = assay: Antifungal activity against Benzimidalzole-resistant Cercospora beticola isolate 18-2 infected in compound-treated sugar beet seedlings at 3.1 ppm after 12 days; type: functional
# Cercospora beticola [41] = assay: Antifungal activity against Benzimidalzole-resistant Cercospora beticola isolate Cb-19 infected in compound-treated sugar beet seedlings at 3.1 ppm after 12 days; type: functional
# Cercospora beticola [42] = assay: Antifungal activity against Benzimidalzole-resistant Cercospora beticola isolate Cb-19 infected in compound-treated sugar beet seedlings at 200 ppm after 12 days; type: functional
# Botrytis cinerea [43] = assay: Antifungal activity against Benzimidalzole-resistant Botryotinia fuckeliana isolate Bc-44 infected compound-treated kidney bean leaves at 3.1 ppm after 4 days; type: functional
smiles,measurement,setting,value
C#CCOc1c(Cl)cc(N/C=N/OC)cc1Cl,Activity,Botrytis cinerea [1],100%
same,Activity,Cercospora beticola [2],40%
same,Activity,Cercospora beticola [3],93%
same,Activity,Cercospora beticola [4],99%
same,Activity,Cercospora beticola [5],100%
same,Activity,Botrytis cinerea [6],0%
same,Activity,Botrytis cinerea [7],17%
same,Ratio EC50,Botrytis cinerea [8],> 1000
same,Ratio EC50,Botrytis cinerea [9],> 1000
same,Ratio EC50,Botrytis cinerea [10],> 1000
same,Activity,Botrytis cinerea [11],100%
same,Activity,Botrytis cinerea [12],100%
same,Activity,Botrytis cinerea [13],Active
same,Activity,Botrytis cinerea [14],inactive
same,Activity,Botrytis cinerea [15],inactive
same,Ratio EC50,Cercospora beticola [16],> 1000
same,Ratio EC50,Cercospora beticola [17],> 1000
same,Ratio EC50,Cercospora beticola [18],> 1000
same,Ratio EC50,Cercospora beticola [19],> 1000
same,Ratio EC50,Cercospora beticola [20],> 1000
same,Ratio EC50,Cercospora beticola [21],> 1000
same,Ratio EC50,Cercospora beticola [22],> 1000
same,Ratio EC50,Cercospora beticola [23],> 1000
same,Ratio EC50,Cercospora beticola [24],> 1000
same,Ratio EC50,Cercospora beticola [25],> 1000
same,Activity,Cercospora beticola [26],inactive
same,Activity,Cercospora beticola [27],inactive
same,Activity,Cercospora beticola [28],inactive
same,Activity,Cercospora beticola [29],Active
same,Ratio EC50,Cercospora beticola [30],> 1000
same,Ratio EC50,Cercospora beticola [31],> 1000
same,Ratio EC50,Cercospora beticola [32],> 1000
same,Ratio EC50,Cercospora beticola [33],> 1000
same,Ratio EC50,Cercospora beticola [34],> 1000
same,Ratio EC50,Cercospora beticola [35],> 1000
same,Ratio EC50,Cercospora beticola [36],> 1000
same,Ratio EC50,Cercospora beticola [37],> 1000
same,Activity,Botrytis cinerea [38],100%
same,Activity,Botrytis cinerea [39],100%
same,Activity,Cercospora beticola [40],91%
same,Activity,Cercospora beticola [41],91%
same,Activity,Cercospora beticola [42],100%
same,Activity,Botrytis cinerea [43],95%
C#CCOc1cc(N/C=N/OC)cc(Cl)c1OCC#C,Activity,Botrytis cinerea [1],100%
same,Activity,Cercospora beticola [2],58%
same,Activity,Cercospora beticola [3],80%
same,Activity,Cercospora beticola [4],100%
same,Activity,Cercospora beticola [5],100%
same,Activity,Botrytis cinerea [6],6%
same,Activity,Botrytis cinerea [7],31%
same,Ratio EC50,Botrytis cinerea [8],> 1000
same,Ratio EC50,Botrytis cinerea [9],> 1000
same,Ratio EC50,Botrytis cinerea [10],> 1000
same,Activity,Botrytis cinerea [11],100%
same,Activity,Botrytis cinerea [12],100%
same,Activity,Botrytis cinerea [13],Active
same,Activity,Botrytis cinerea [14],inactive
same,Activity,Botrytis cinerea [15],inactive
same,Ratio EC50,Cercospora beticola [16],> 1000
same,Ratio EC50,Cercospora beticola [17],> 1000
same,Ratio EC50,Cercospora beticola [18],> 1000
same,Ratio EC50,Cercospora beticola [19],> 1000
same,Ratio EC50,Cercospora beticola [20],> 1000
same,Ratio EC50,Cercospora beticola [21],> 1000
same,Ratio EC50,Cercospora beticola [22],> 1000
same,Ratio EC50,Cercospora beticola [23],> 1000
same,Ratio EC50,Cercospora beticola [24],> 1000
same,Ratio EC50,Cercospora beticola [25],> 1000
same,Activity,Cercospora beticola [26],inactive
same,Activity,Cercospora beticola [27],inactive
same,Activity,Cercospora beticola [28],inactive
same,Activity,Cercospora beticola [29],Active
same,Ratio EC50,Cercospora beticola [30],> 1000
same,Ratio EC50,Cercospora beticola [31],> 1000
same,Ratio EC50,Cercospora beticola [32],> 1000
same,Ratio EC50,Cercospora beticola [33],> 1000
same,Ratio EC50,Cercospora beticola [34],> 1000
same,Ratio EC50,Cercospora beticola [35],> 1000
same,Ratio EC50,Cercospora beticola [36],> 1000
same,Ratio EC50,Cercospora beticola [37],> 1000
same,Activity,Botrytis cinerea [38],100%
same,Activity,Botrytis cinerea [39],100%
same,Activity,Cercospora beticola [40],84%
same,Activity,Cercospora beticola [41],94%
same,Activity,Cercospora beticola [42],100%
same,Activity,Botrytis cinerea [43],100%
